Measurements: patent US20120270819A1, “USE OF COMPOUNDS WITH SGLT-1/SGLT-2 INHIBITOR ACTIVITY FOR PRODUCING MEDICAMENTS FOR TREATMENT OF BONE DISEASE” (SANOFI, priority 2009, published 2012)

Target: T1, human sodium-dependent glucose transporter 1 (SGLT1, SLC5A1) (Homo sapiens, UniProt P13866)
T1 construct: Bases 11 to 2005 correspond to the complete coding region of human SGLT1; expressed in transfected cells; host or cells: CHO-TRex cells (Invitrogen), pcDNA4/TO vector, tetracycline-induced
T1 sequence (P13866 1-664): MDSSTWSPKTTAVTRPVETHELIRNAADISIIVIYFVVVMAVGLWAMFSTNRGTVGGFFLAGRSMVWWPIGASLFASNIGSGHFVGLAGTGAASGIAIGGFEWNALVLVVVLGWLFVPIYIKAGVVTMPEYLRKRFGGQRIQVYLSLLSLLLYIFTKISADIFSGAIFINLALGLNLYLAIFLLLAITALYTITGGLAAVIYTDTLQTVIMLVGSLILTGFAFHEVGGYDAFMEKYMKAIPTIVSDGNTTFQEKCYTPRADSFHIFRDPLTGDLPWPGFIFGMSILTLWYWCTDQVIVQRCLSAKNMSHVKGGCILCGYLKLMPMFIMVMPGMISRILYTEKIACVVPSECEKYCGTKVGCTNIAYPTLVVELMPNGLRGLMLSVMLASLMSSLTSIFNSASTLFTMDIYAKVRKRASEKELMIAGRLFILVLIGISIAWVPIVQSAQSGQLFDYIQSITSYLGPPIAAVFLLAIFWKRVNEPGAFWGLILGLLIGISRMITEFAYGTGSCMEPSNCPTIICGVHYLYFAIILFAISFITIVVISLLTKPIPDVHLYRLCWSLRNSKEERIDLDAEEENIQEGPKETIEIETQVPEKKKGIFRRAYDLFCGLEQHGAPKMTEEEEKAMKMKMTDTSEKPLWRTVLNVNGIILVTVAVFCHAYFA
Experiment: Inhibition of methyl α-D-glucopyranoside uptake in CHO-TRex-hSGLT1 cells
Assay type: cell-based
Conditions: recombinant SGLT1; read-out: IC50 SGLT 1
Source text: A further method for testing the activity of the compounds is the inhibition of the transport activity of the human sodium-dependent glucose transporter 1 (SGLT1, SLC5A1) in vitro:
1. Cloning of an Expression Vector for Human SGLT1
The cDNA for human SGLT1 was introduced into the pcDNA4/TO vector (Invitrogen) by standard methods of molecular biology as described in Sambrook et al. (Sambrook et al., Molecular Cloning, A Laboratory Manual, 2nd Edition). […] Bases 11 to 2005 correspond to the complete coding region of human SGLT1.
2. Preparation of a Recombinant Cell Line with Inducible Expression of Human SGLT1
The expression vector for human SGLT1 was introduced into CHO-TRex cells (Invitrogen) by means of FuGene6 lipofection (Roche). To select single cell clones, 600 μg/ml Zeocin (Invitrogen) was added to the cell culture medium (Nutrient Mixture F-12 (Ham), (Invitrogen) supplemented with 10% fetal calf serum (BD Biosciences), 10 μg/ml blasticidin S(CN Biosciences), 100 units/ml penicillin, 100 units/ml streptomycin). The functionality of the single cell clones resulting from the selection was tested via their uptake activity for radiolabeled methyl α-D-glucopyranoside. The cell clone with the greatest uptake activity for methyl α-D-glucopyranoside, referred to as CHO-TRex-hSGLT1 hereinafter, was selected for further experiment, and cultivation was continued in the presence of 600 μg/ml of zeocin.
3. Measurement of the Inhibitory Effect of Test Substances on the Uptake of Methyl-D-qlucopyranoside (-MDG)
CHO-TRex-hSGLT1 cells were seeded in a concentration of 50 000 cells per well in Cytostar-T scintillating 96-well plates (Amersham Biosciences) in cell culture medium and cultivated for 24 h. Expression of the recombinant human SGLT1 was induced by adding 1 μg/ml tetracyclin for a further 24 h. For α-MDG uptake experiments, the cells were washed with PBS and then starved (PBS supplemented with 10% fetal calf serum) at 37° C. for one hour. […]
The final concentration of methyl α-D-glucopyranoside in the assay was 50 μM. After an incubation time of 30 min at room temperature, the reaction was stopped by adding 50 μl/well of 10 mM methyl α-D-glucopyranoside in transport assay buffer (4° C.), and the radioactivity uptake by the cells was determined in a MicroBeta Scintillation Microplate Reader (Wallac). The half-maximum inhibitory effect of the test substances (IC50) was determined in the following way: • 1. […] This is the measurement in the absence of substance, measured in sodium-containing transport assay buffer. • 2. […] This is the measurement in the absence of substance, measured in sodium-free transport assay buffer (140 mM choline chloride, 2 mM potassium chloride, 1 mM magnesium chloride, 1 mM calcium chloride, 10 mM HEPES/Tris, pH7.5). • 3. […]

SMILES | IC50 [µM]
COc1ccc(Cc2ccccc2OC2OC(CO)C(F)C(O)C2O)cc1 (stereo not shown) [Example 1 of formula III] | 0.77
COc1ccc(Cc2c(OC3OC(CO)C(F)C(O)C3O)n[nH]c2C(F)(F)F)cc1 (stereo not shown) [Example 5 of formula II] | 0.029
CCc1ccc(Cc2ccccc2OC2OC(CO)C(F)C(O)C2O)cc1 (stereo not shown) [Example 20 of formula III] | 0.32
CC(C)c1[nH]nc(OC2OC(CO)C(F)C(O)C2O)c1Cc1ccc(CCCC(=O)NC(CO)(CO)CO)cc1 (stereo not shown) [Example 21 of formula I] | 0.027
